From US10626095B2, “Cyanotriazole compounds” (OTSUKA PHARMACEUTICAL CO., LTD., priority 2013, dated 2020) come the findings set out here.

Molecules are shown by their SMILES.

This test has as its system NaCT-CHO (CHO cells stably expressing human NaCT). Description: Assay of the citric acid cycle activation ([1,5-14C]-citric acid, diffusion of [14C]-CO2). It counts as cell-based. The note with it: 1 hour incubation at 37° C. with [1,5-14C]-citric acid. From the text:
Assay of the Citric Acid Cycle Activation
(1) Construction of the Human NaCT Expression Vector pME-NaCT
The human NaCT (also called SLC13A5 or NAC2; GenBank accession No. NM_177550) cDNA was inserted into the EcoRI-NotI site of the mammalian expression vector pME18S (GenBank accession No. AB009864) and purified by Qiagen Plasmid Maxi Kit (Qiagen).
(2) Establishment of NaCT Stably Expressed CHO Cells
The pME-NaCT vector and the pcDNA™3.1 vector containing the neomycin resistance gene (Life Technologies) were co-transfected into CHO-K1 cells (ATCC) by Lipofectaimine 2000 reagent (Life Technologies). The next day the cells were subcultured in Nutrient Mixture F-12 Ham (Sigma-Aldrich) with 10% FBS (Biological Industries), and Geneticin (Life Technologies) was added (final concentration 350 μg/mL) in the following day. CHO cell clones stably expressing NaCT were given by neomycin resistant cell screening and limiting dilution method. Established cell lines (named NaCT-CHO) were also maintained in culture medium (Nutrient Mixture F-12 Ham) with 10% FBS and 350 μg/mL Geneticin. For control cells (named pME-CHO) preparation, the naive pME18S were also transfected instead of pME-NaCT into CHO-K1 cells.
(3) Assay of the Citric Acid Cycle Activation
NaCT-CHO and pME-CHO were plated at 20,000 cells/well into white CulturPlate™-96 (PerkinElmer) two days before the assay. Prior to assay incubation, the cultured plates were washed twice with washing buffer, 10 mM HEPES-Tris(pH7.4) containing 140 mM choline chloride, 2 mM KCl, 1 mM CaCl2, 1 mM MgCl2. The compounds to be tested were dissolved and diluted in DMSO (Wako Pure Chemical industries) to 1,000 times of a final concentration, and further diluted to two times as high as the final concentration in assay buffer, 10 mM HEPES-Tris(pH7.4) containing 140 mM NaCl, 2 mM KCl, 1 mM CaCl2, 1 mM MgCl2. The range of final concentrations was properly determined based on the test compounds activity. Each 25 μL compound solution was added to well and subsequently 25 μL radio-labeled substrate solution containing 0.4 mM (0.4 MBq/mL) [1,5-^14C]-citric acid (PerkinElmer) in the assay buffer was added. After 1 hour incubation at 37° C., the reaction mixture was discarded and washed three times with pre-chilled washing buffer and then 0.1 mL MicroScint 20 (PerkinElmer) was added to well. The plate was sealed with TopSeal-A (PerkinElmer) and the radioactivity was measured using a TopCount (PerkinElmer). Non-specific activity (NS cpm) and total radio activity (Total cpm) were determined by counting of pME-CHO plated wells and NaCT-CHO plated wells without compounds, respectively. Diffusion of [^14C]—CO2 was able to be estimated from residual radioactivity (R cpm) by an equation (Total−R)/(Total−NS)×100(%). The difference of Total and R was disappeared in the presence of 0.1 μM antimycin A. EC50 values were calculated by regression analysis using SAS Statistical Analysis System (SAS institute Japan Ltd. Release 9.1).

What is called EC50 is the concentration needed to bring the measured effect to its halfway point. Low readings indicate higher potency in that assay, high ones lower potency in that assay. Compound `Cc1sc(-c2ccc(C(F)(F)F)cn2)nc1-c1nn[nH]c1C#N` [Example 93, 5-[5-methyl-2-(5-trifluoromethyl-pyridin-2-yl)-thiazol-4-yl]-3H-[1,2,3]triazole-4-carbonitrile] yielded an EC50 of 0.58 µM. `N#Cc1[nH]nnc1-c1ccn(-c2cc(C(F)(F)F)ccc2C(F)(F)F)c1` [Example 140, 5-[1-(2,5-bis-trifluoromethyl-phenyl)-1H-pyrrol-3-yl]-3H-[1,2,3]triazole-4-carbonitrile] showed an EC50 of 0.8 µM. The result for `CCN(c1cccc(C(F)(F)F)c1)c1nc(-c2nn[nH]c2C#N)cs1` [Example 84, 5-{2-[N-ethyl-N-(3-trifluoromethyl-phenyl)-amino]-thiazol-4-yl}-3H-[1,2,3]triazole-4-carbonitrile] reads 1.5 µM; that for `N#Cc1[nH]nnc1-c1nc(-c2cccc(Cl)c2)oc1C1CC1` [Example 121, 5-[2-(3-chloro-phenyl)-5-cyclopropyl-oxazol-4-yl]-3H-[1,2,3]triazole-4-carbonitrile], 0.99 µM; that for `N#Cc1[nH]nnc1-c1ccc(/C=C/c2cccc(C(F)(F)F)c2)cc1F` [Example 73, 5-{2-fluoro-4-[(E)-2-(3-trifluoromethyl-phenyl)-vinyl]-phenyl}-3H-[1,2,3]triazole-4-carbonitrile], 0.73 µM. As for `N#Cc1[nH]nnc1-c1cc(OCc2cccc(C(F)(F)F)c2)cc(-c2ccc(C(F)(F)F)cn2)c1` [Example 20, 5-[3-(3-trifluoromethyl-benzyloxy)-5-(5-trifluoromethyl-pyridin-2-yl)-phenyl]-3H-[1,2,3]triazole-4-carbonitrile], the figure is 1.62 µM; as for `N#Cc1[nH]nnc1-c1cccc(Sc2ccc(Cl)cc2)c1` [Example 38, 5-[3-(4-chloro-phenylsulfanyl)-phenyl]-3H-[1,2,3]triazole-4-carbonitrile], 0.42 µM. Compound `N#Cc1[nH]nnc1-c1cc(F)cc(-c2cccc(C(F)(F)F)c2)c1` [Example 28, 5-(5-fluoro-3′-trifluoromethyl-biphenyl-3-yl)-3H-[1,2,3]triazole-4-carbonitrile] displayed an EC50 of 0.37 µM. The result for `N#Cc1[nH]nnc1-c1cc(-c2ccsc2)cc(C(F)(F)F)c1` [Example 10, 5-(3-(thiophen-3-yl)-5-trifluoromethyl-phenyl)-3H-[1,2,3]triazole-4-carbonitrile] reads 0.07 µM; that for `N#Cc1[nH]nnc1-c1ccc(Cc2ccc(Cl)cc2)s1` [Example 131, 5-[5-(4-chloro-benzyl)-thiophen-2-yl]-3H-[1,2,3]triazole-4-carbonitrile], 0.44 µM.

The compound `N#Cc1[nH]nnc1-c1sc2ccccc2c1-c1ccc(F)cc1` [Example 148, 5-[3-(4-fluoro-phenyl)-benzo[b]thiophen-2-yl]-3H-[1,2,3]triazole-4-carbonitrile] displayed an EC50 of 0.92 µM. In the case of `CCOCc1cc(-c2ccc(F)cc2)cc(-c2nn[nH]c2C#N)c1` [Example 33, 5-(5-ethoxymethyl-4′-fluoro-biphenyl-3-yl)-3H-[1,2,3]triazole-4-carbonitrile], the 50% effective concentration (EC50) came out at 0.27 µM. Compound `N#Cc1[nH]nnc1-c1cccc(COc2cc(C(F)(F)F)cc(C(F)(F)F)c2)c1` [Example 57, 5-[3-(3,5-bis-trifluoromethyl-phenoxymethyl)-phenyl]-3H-[1,2,3]triazole-4-carbonitrile] came in with a concentration giving a half-maximal response (EC50) of 0.48 µM.

Compound `CCc1sc(Oc2ccc(Cl)cc2)nc1-c1nn[nH]c1C#N` [Example 102] had an EC50 of 0.36 µM. Take `N#Cc1[nH]nnc1-c1cccc(/C=C/c2cccc(C(F)(F)F)c2)c1Cl` [Example 42, 5-{2-chloro-3-[(E)-2-(3-trifluoromethyl-phenyl)-vinyl]-phenyl}-3H-[1,2,3]triazole-4-carbonitrile]: the EC50 amounted to 0.59 µM. The result for `N#Cc1[nH]nnc1-c1ccc(-c2cc(C(F)(F)F)ccn2)cc1` [Example 69, 5-[4-(4-trifluoromethyl-pyridin-2-yl)-phenyl]-3H-[1,2,3]triazole-4-carbonitrile] reads 0.53 µM; that for `N#Cc1[nH]nnc1Cc1cccc(-c2cccc(C(F)(F)F)c2)c1` [Example 149, 5-(3′-trifluoromethyl-biphenyl-3-ylmethyl)-3H-[1,2,3]triazole-4-carbonitrile], 0.7 µM. `Cc1nc(-c2ccc(Cl)cc2)sc1-c1nn[nH]c1C#N` [Example 113, 5-[2-(4-chloro-phenyl)-4-methyl-thiazol-5-yl]-3H-[1,2,3]triazole-4-carbonitrile] yielded an EC50 of 0.79 µM. For `N#Cc1[nH]nnc1-c1cc(Oc2ccccc2)cc(C(F)(F)F)c1` [Example 37, 5-(3-phenoxy-5-trifluoromethyl-phenyl)-3H-[1,2,3]triazole-4-carbonitrile], the midpoint of the response, the EC50, lay at 0.12 µM. As for `N#Cc1[nH]nnc1-c1cc(/C=C/c2cccc(C(F)(F)F)c2)co1` [Example 135, 5-{4-[(E)-2-(3-trifluoromethyl-phenyl)-vinyl]-furan-2-yl}-3H-[1,2,3]triazole-4-carbonitrile], the figure is 1.57 µM; as for `CN(Cc1cc(C(F)(F)F)cc(C(F)(F)F)c1)c1cccc(-c2nn[nH]c2C#N)c1` [Example 58, 5-{3-[N-(3,5-bis-trifluoromethyl-benzyl)-N-methyl-amino]-phenyl}-3H-[1,2,3]triazole-4-carbonitrile], 0.72 µM; as for `N#Cc1[nH]nnc1-c1ccc(-c2cc(F)cc(C(F)(F)F)c2)s1` [Example 129, 5-[5-(3-fluoro-5-trifluoromethyl-phenyl)-thiophen-2-yl]-3H-[1,2,3]triazole-4-carbonitrile], 0.44 µM.

For the compound `CCOc1ccc(-c2ccc(C(F)(F)F)nc2)cc1-c1nn[nH]c1C#N` [Example 16, 5-[2-ethoxy-5-(6-trifluoromethyl-pyridin-3-yl)-phenyl]-3H-[1,2,3]triazole-4-carbonitrile], the EC50 amounted to 0.67 µM. As for `CC(C)Cc1oc(-c2ccc(F)c(F)c2)nc1-c1nn[nH]c1C#N` [Example 125, 5-[2-(3,4-difluoro-phenyl)-5-isobutyl-oxazol-4-yl]-3H-[1,2,3]triazole-4-carbonitrile], the figure is 0.54 µM; as for `Cn1c(-c2cc(F)cc(C(F)(F)F)c2)ccc1-c1nn[nH]c1C#N` [Example 139, 5-[5-(3-fluoro-5-trifluoromethyl-phenyl)-1-methyl-1H-pyrrol-2-yl]-3H-[1,2,3]triazole-4-carbonitrile], 0.21 µM. The result for `N#Cc1[nH]nnc1-c1cccn1Cc1ccc(C(F)(F)F)cc1C(F)(F)F` [Example 138, 5-[1-(2,4-bis-trifluoromethyl-benzyl)-1H-pyrrol-2-yl]-3H-[1,2,3]triazole-4-carbonitrile] reads 0.062 µM; that for `N#Cc1[nH]nnc1-c1csc(Oc2cccc(C(F)(F)F)c2)n1` [Example 85, 5-[2-(3-trifluoromethyl-phenoxy)-thiazol-4-yl]-3H-[1,2,3]triazole-4-carbonitrile], 0.69 µM; that for `N#Cc1[nH]nnc1-c1cccc(COc2ccc(C(F)(F)F)cn2)c1` [Example 56, 5-[3-(5-trifluoromethyl-pyridin-2-yloxymethyl)-phenyl]-3H-[1,2,3]triazole-4-carbonitrile], 0.73 µM. The result for `CC(C)(C)c1cc(-c2ccc(C(F)(F)F)cn2)cc(-c2nn[nH]c2C#N)c1` [Example 13, 5-[3-tert-butyl-5-(5-trifluoromethyl-pyridin-2-yl)-phenyl]-3H-[1,2,3]triazole-4-carbonitrile] reads 0.87 µM.

The compound `N#Cc1[nH]nnc1CCc1ccccc1OCc1cc(C(F)(F)F)ccc1C(F)(F)F` [Example 150, 5-{2-[2-(2,5-bis-trifluoromethyl-benzyloxy)-phenyl]-ethyl}-3H-[1,2,3]triazole-4-carbonitrile] came in with an EC50 of 0.86 µM. The result for `N#Cc1[nH]nnc1-c1coc(-c2ccc(OC(F)(F)F)cc2)n1` [Example 117, 5-[2-(4-trifluoromethoxy-phenyl)-oxazol-4-yl]-3H-[1,2,3]triazole-4-carbonitrile] reads 1.59 µM.

Compound `CC(C)c1oc(-c2ccc(F)cc2)nc1-c1nn[nH]c1C#N` [Example 123, 5-[2-(4-fluoro-phenyl)-5-isopropyl-oxazol-4-yl]-3H-[1,2,3]triazole-4-carbonitrile] showed an EC50 of 0.68 µM.
